Results reported in patent US11174253B2, “Compound and pharmaceutical composition containing the same” (ALPHALA CO., LTD., priority 2017, dated 2021).

Key:
Format in all cases: cell-based
[1] = test system: SW480 colon adenocarcinoma cell line; assay: MTS cell viability assay (NCI-60 methodology), GI50/LC50, SW480; details: Homo sapiens, 48 h, SW480 cells, 2 days incubation with compound
Protocol: (§1) The number of treated cells was determined by GE InCell 2200 system, and treated cells were stained with Hoechst 33342 which can reveal the remained nucleus in culture plate. The proportion of survival cells then were calculated with the ratio of treated/non-treated cells. The growth inhibition/cytotoxic effect of selected compounds were evaluated by the following protocol of NCI-60 screening platform. The human tumor cell lines are plating on a 96 well plate in a fixed density 24 hr prior compound treatment. Compounds with multiple concentrations are then added into each well for further 48 hr incubation. Cell viability is assessed by MTS method and the potency of compound is represented by GI50 and LC50 calculated by MTS result.
(§2) The cell viability measurement is based on the NCI-60 screening methodology (Nat. Rev. Cancer 6, 813-823, 2006). Briefly, cells are inoculated into 96-well plates at the optimal plating density. After 24 h, one of the two plates for each cell line is processed to determine a time zero cell viability (Tz) by MTS assay (Promega). Compounds are added over a 2-fold serial dilution to provide a total five drug concentrations plus DMSO control. Plates are incubated for a further 2 days, then measured cell viability by MTS assay [control growth (C) and test growth in the presence of drug at the five concentration levels (Ti)]. Growth inhibition of 50% (GI50) is calculated from [(Ti−Tz)/(C−Tz)]×100=50, which is the drug concentration resulting in a 50% reduction of control cells during the drug incubation. The LC50 is calculated from [(Ti−Tz)/Tz]×100=−50, which is the drug concentration resulting in a 50% reduction at the end of the drug treatment as compared to that at the beginning.
(§3) Herein, Hep3B refers to hepatocellular carcinoma cell line, SW480 refers to colon adenocarcinoma cell line, and NCI-H460 refers to human lung cancer cell line.

[2] = test system: Hep3B hepatocellular carcinoma cell line; assay: MTS cell viability assay (NCI-60 methodology), GI50/LC50, Hep3B; details: Homo sapiens, 48 h, Hep3B cells, 2 days incubation with compound
Protocol: as §1, §2, §3

[3] = test system: NCI-H460 human lung cancer cell line; assay: MTS cell viability assay (NCI-60 methodology), GI50/LC50, NCI-H460; details: 48 h, NCI-H460 cells, 2 days incubation with compound
Protocol: as §1, §2, §3

[4] = test system: hepatocellular carcinoma cell line Hep3B; assay: Growth inhibition of Hep3B cells, 48 hr treatment, Hoechst 33342 nucleus count (GE InCell 2200); details: Homo sapiens
How it was run: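 Compound exposure lasted 48 hr at 37° C, 5% CO2. Surviving nuclei were counted after Hoechst 33342 staining, and survival was expressed as the treated/non-treated cell number ratio, including the ratio at 10 μM compound.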

[5] = Table 1, ratio of number of tumor cells treated with 10 μM compound to non-treated cells
[6] = Table 5, ratio of number of tumor cells treated with 10 μM compound to non-treated cells

CCOCOc1cc(OCC)ccc1-c1nnc(NC(=O)Cc2ccc3nc(N)sc3c2)s1 [Compound 1-26, 2-(2-aminobenzo[d]thiazol-6-yl)-N-(5-(4-ethoxy-2-(ethoxymethoxy)phenyl)-1,3,4-thiadiazol-2-yl)acetamide]
GI50 [1]: 0.21 µM | LC50 (NCI-60 lethal concentration, 50% net cell loss vs time zero) [1]: 0.63 µM | GI50 [2]: 0.16 µM | LC50 [2]: 0.49 µM | GI50 [3]: 0.2 µM | LC50 (concentration giving 50% net cell loss versus time zero, NCI-60 definition) [3]: 0.59 µM | viability at 10 µM [4, 5]: 59%

CCOc1cc(OCC)c(-c2nnc(N(C)C(=O)Cc3ccc4nc(N)sc4c3)s2)cn1 [Compound 1-37, 2-(2-aminobenzo[d]thiazol-6-yl)-N-(5-(4,6-diethoxypyridin-3-yl)-1,3,4-thiadiazol-2-yl)-N-methylacetamide]
GI50 [1]: 1.26 µM | GI50 [2]: 0.84 µM | LC50 [2]: 1.24 µM | GI50 [3]: 1.35 µM | viability at 10 µM [4, 5]: 47%

Nc1nc2ccc(CC(=O)Nc3nc(-c4ccc(Br)cc4)c(-c4ccc(Br)cc4)s3)cc2s1 [Compound 3-10, 2-(2-aminobenzo[d]thiazol-6-yl)-N-(4,5-bis(4-bromophenyl)thiazol-2-yl)acetamide]
GI50 [1]: 1.21 µM | LC50 (NCI-60 lethal concentration, 50% net cell loss vs time zero) [1]: 7.08 µM | GI50 [2]: 0.51 µM | LC50 [2]: 1.29 µM | GI50 [3]: 0.84 µM | LC50 (concentration giving 50% net cell loss versus time zero, NCI-60 definition) [3]: 6.62 µM | viability at 10 µM ([4]; Table 3, ratio of number of tumor cells treated with 10 μM compound to non-treated cells): 52%

CCOc1ccc(-c2nc(NC(=O)c3ccc([N+](=O)[O-])s3)sc2Oc2ccccc2)cc1 [Compound 5-6, N-(4-(4-ethoxyphenyl)-5-phenoxythiazol-2-yl)-5-nitrothiophene-2-carboxamide]
GI50 [1]: 2.59 µM | LC50 (NCI-60 lethal concentration, 50% net cell loss vs time zero) [1]: 5.52 µM | GI50 [2]: 1.1 µM | LC50 [2]: 4.35 µM | GI50 [3]: 1.17 µM | LC50 (concentration giving 50% net cell loss versus time zero, NCI-60 definition) [3]: 3.99 µM | viability at 10 µM [4, 6]: 42%

O=C(Nc1nc(-c2ccc(Br)cc2)c(Oc2ccc(C(F)(F)F)cc2)s1)c1ccc([N+](=O)[O-])s1 [Compound 5-7, N-(4-(4-bromophenyl)-5-(4-(trifluoromethyl)phenoxy)thiazol-2-yl)-5-nitrothiophene-2-carboxamide]
GI50 [1]: 0.32 µM | LC50 (NCI-60 lethal concentration, 50% net cell loss vs time zero) [1]: 2.8 µM | GI50 [2]: 0.63 µM | LC50 [2]: 1.23 µM | GI50 [3]: 0.85 µM | LC50 (concentration giving 50% net cell loss versus time zero, NCI-60 definition) [3]: 1.85 µM | viability at 10 µM [4, 6]: 31%

O=C(Nc1nc(-c2ccc(Br)cc2)c(Oc2cccc(C(F)(F)F)c2)s1)c1ccc([N+](=O)[O-])s1 [Compound 5-11, N-(4-(4-bromophenyl)-5-(3-(trifluoromethyl)phenoxy)thiazol-2-yl)-5-nitrothiophene-2-carboxamide]
GI50 [1]: 7.04 µM | GI50 [2]: 6.54 µM | GI50 [3]: 0.63 µM | LC50 (concentration giving 50% net cell loss versus time zero, NCI-60 definition) [3]: 3.98 µM | viability at 10 µM [4, 6]: 21%

CC(C)(C)c1ccc(-c2nc(NC(=O)c3ccc([N+](=O)[O-])s3)sc2Oc2ccccc2)cc1 [Compound 5-14, N-(4-(4-(tert-butyl)phenyl)-5-phenoxythiazol-2-yl)-5-nitrothiophene-2-carboxamide]
GI50 [1]: 1.51 µM | GI50 [2]: 0.34 µM | LC50 [2]: 7.35 µM | GI50 [3]: 1.72 µM | viability at 10 µM [4, 6]: 50%

CCCOc1ccc(-c2nc(NC(=O)c3ccc([N+](=O)[O-])s3)sc2Oc2cccc(C(F)(F)F)c2)cc1 [Compound 5-17, 5-nitro-N-(4-(4-propoxyphenyl)-5-(3-(trifluoromethyl)phenoxy)thiazol-2-yl)thiophene-2-carboxamide]
GI50 [1]: 1.26 µM | LC50 (NCI-60 lethal concentration, 50% net cell loss vs time zero) [1]: 2.41 µM | GI50 [2]: 0.3 µM | LC50 [2]: 1.6 µM | GI50 [3]: 1.16 µM | LC50 (concentration giving 50% net cell loss versus time zero, NCI-60 definition) [3]: 2.29 µM | viability at 10 µM [4, 6]: 37%

O=C(Nc1nc(-c2ccc(Br)cc2)c(Oc2ccccc2C(F)(F)F)s1)c1ccc([N+](=O)[O-])s1 [Compound 5-19, N-(4-(4-bromophenyl)-5-(2-(trifluoromethyl)phenoxy)thiazol-2-yl)-5-nitrothiophene-2-carboxamide]
GI50 [1]: 1.51 µM | LC50 (NCI-60 lethal concentration, 50% net cell loss vs time zero) [1]: 3.94 µM | GI50 [2]: 1.79 µM | LC50 [2]: 3.91 µM | GI50 [3]: 2.88 µM | viability at 10 µM [4, 6]: 62%

CC(C)(C)c1ccc(-c2nc(NC(=O)c3ccc([N+](=O)[O-])s3)sc2Oc2ccc(F)cc2)cc1 [Compound 5-20, N-(4-(4-(tert-butyl)phenyl)-5-(4-fluorophenoxy)thiazol-2-yl)-5-nitrothiophene-2-carboxamide]
GI50 [1]: 0.88 µM | LC50 (NCI-60 lethal concentration, 50% net cell loss vs time zero) [1]: 3.73 µM | GI50 [2]: 0.79 µM | LC50 [2]: 2.63 µM | GI50 [3]: 2.76 µM | LC50 (concentration giving 50% net cell loss versus time zero, NCI-60 definition) [3]: 8.34 µM | viability at 10 µM [4, 6]: 62%

CC(C)(C)c1ccc(-c2nc(NC(=O)c3ccc([N+](=O)[O-])s3)sc2Oc2cccc(F)c2)cc1 [Compound 5-22, N-(4-(4-(tert-butyl)phenyl)-5-(3-fluorophenoxy)thiazol-2-yl)-5-nitrothiophene-2-carboxamide]
GI50 [1]: 2.5 µM | LC50 (NCI-60 lethal concentration, 50% net cell loss vs time zero) [1]: 4.27 µM | GI50 [2]: 1.43 µM | LC50 [2]: 4.03 µM | GI50 [3]: 2.09 µM | LC50 (concentration giving 50% net cell loss versus time zero, NCI-60 definition) [3]: 4.53 µM | viability at 10 µM [4, 6]: 30%

CCOc1ccc(-c2nc(NC(=O)c3ccc([N+](=O)[O-])s3)sc2Oc2cccc(C(F)(F)F)c2)cc1 [Compound 5-23, N-(4-(4-ethoxyphenyl)-5-(3-(trifluoromethyl)phenoxy)thiazol-2-yl)-5-nitrothiophene-2-carboxamide]
GI50 [1]: 6.42 µM | GI50 [2]: 1.22 µM | LC50 [2]: 3.96 µM | GI50 [3]: 2.49 µM | LC50 (concentration giving 50% net cell loss versus time zero, NCI-60 definition) [3]: 4.43 µM | viability at 10 µM [4, 6]: 30%

CCCOc1ccc(-c2nc(NC(=O)c3ccc([N+](=O)[O-])s3)sc2Oc2cccc(F)c2)cc1 [Compound 5-24, N-(5-(3-fluorophenoxy)-4-(4-propoxyphenyl)thiazol-2-yl)-5-nitrothiophene-2-carboxamide]
GI50 [1]: 1.14 µM | LC50 (NCI-60 lethal concentration, 50% net cell loss vs time zero) [1]: 4.23 µM | GI50 [2]: 0.95 µM | LC50 [2]: 2.07 µM | GI50 [3]: 1.57 µM | LC50 (concentration giving 50% net cell loss versus time zero, NCI-60 definition) [3]: 3.79 µM | viability at 10 µM [4, 6]: 28%

CCCOc1ccc(-c2nc(NC(=O)c3ccc([N+](=O)[O-])s3)sc2Oc2ccc(C(F)(F)F)cc2)cc1 [Compound 5-26, 5-nitro-N-(4-(4-propoxyphenyl)-5-(4-(trifluoromethyl)phenoxy)thiazol-2-yl)thiophene-2-carboxamide]
GI50 [1]: 1.05 µM | LC50 (NCI-60 lethal concentration, 50% net cell loss vs time zero) [1]: 3.44 µM | GI50 [2]: 0.83 µM | LC50 [2]: 1.18 µM | GI50 [3]: 1.15 µM | LC50 (concentration giving 50% net cell loss versus time zero, NCI-60 definition) [3]: 3.2 µM | viability at 10 µM [4, 6]: 24%

CCCOc1ccc(-c2nc(NC(=O)c3ccc([N+](=O)[O-])s3)sc2Oc2ccc(Br)cc2)cc1 [Compound 5-27, N-(5-(4-bromophenoxy)-4-(4-propoxyphenyl)thiazol-2-yl)-5-nitrothiophene-2-carboxamide]
GI50 [1]: 1.23 µM | LC50 (NCI-60 lethal concentration, 50% net cell loss vs time zero) [1]: 4.87 µM | GI50 [2]: 0.82 µM | LC50 [2]: 1.51 µM | GI50 [3]: 1.96 µM | LC50 (concentration giving 50% net cell loss versus time zero, NCI-60 definition) [3]: 4.74 µM | viability at 10 µM [4, 6]: 31%

CCOc1ccc(-c2nc(NC(=O)c3ccc([N+](=O)[O-])s3)sc2Oc2ccc(C(C)(C)C)cc2)cc1 [Compound 5-29, N-(5-(4-(tert-butyl)phenoxy)-4-(4-ethoxyphenyl)thiazol-2-yl)-5-nitrothiophene-2-carboxamide]
GI50 [1]: 3.34 µM | LC50 (NCI-60 lethal concentration, 50% net cell loss vs time zero) [1]: 9.95 µM | GI50 [2]: 1.84 µM | LC50 [2]: 3.86 µM | GI50 [3]: 3.24 µM | LC50 (concentration giving 50% net cell loss versus time zero, NCI-60 definition) [3]: 9.12 µM | viability at 10 µM [4, 6]: 42%

CCCOc1ccc(-c2nc(NC(=O)c3ccc([N+](=O)[O-])s3)sc2Oc2ccc(F)cc2)cc1 [Compound 5-30, N-(5-(4-fluorophenoxy)-4-(4-propoxyphenyl)thiazol-2-yl)-5-nitrothiophene-2-carboxamide]
GI50 [1]: 0.53 µM | LC50 (NCI-60 lethal concentration, 50% net cell loss vs time zero) [1]: 2.82 µM | GI50 [2]: 0.92 µM | LC50 [2]: 2.23 µM | GI50 [3]: 0.7 µM | LC50 (concentration giving 50% net cell loss versus time zero, NCI-60 definition) [3]: 2.15 µM | viability at 10 µM [4, 6]: 40%
